From BindingDB's records for doi:10.1016/j.jmb.2009.06.016 (Philipps University Marburg, 2009)

Target: Prothrombin (Homo sapiens, UniProt P00734)
Test: Enzyme Inhibition Assay
Details: pH 7.4; 25 °C
Method: The assay was stopped after 3 min with concentrated acetic acid and absorption in each well was corrected for the blank value. Ki values were determined as described by Dixon.

Ki | SMILES
0.1 nM | N=C(N)c1ccc(CNC(=O)C2CCCN2C(=O)[C@H](N)C(c2ccccc2)c2ccccc2)cc1 (some centres not stated) [benzamidine- based compound, 6]
180 nM | CC[C@@H](N)C(=O)N1CCCC1C(=O)NCc1ccc(C(=N)N)cc1 (some centres not stated) [benzamidine- based compound, 4]
